The subject of assay [1] is Tyrosine-protein kinase ABL1 (Homo sapiens), P00519 [F317I]. As to the kind of experiment: Inhibition of nonphosphorylated ABL1 F317I mutant (unknown origin) assessed as residual activity at 1000 nM by KINOMEscan analysis relative to control.
In assay [2] the target is T1, Serine/threonine-protein kinase haspin (Homo sapiens) (UniProt Q8TF76).
T1 sequence (whole entry): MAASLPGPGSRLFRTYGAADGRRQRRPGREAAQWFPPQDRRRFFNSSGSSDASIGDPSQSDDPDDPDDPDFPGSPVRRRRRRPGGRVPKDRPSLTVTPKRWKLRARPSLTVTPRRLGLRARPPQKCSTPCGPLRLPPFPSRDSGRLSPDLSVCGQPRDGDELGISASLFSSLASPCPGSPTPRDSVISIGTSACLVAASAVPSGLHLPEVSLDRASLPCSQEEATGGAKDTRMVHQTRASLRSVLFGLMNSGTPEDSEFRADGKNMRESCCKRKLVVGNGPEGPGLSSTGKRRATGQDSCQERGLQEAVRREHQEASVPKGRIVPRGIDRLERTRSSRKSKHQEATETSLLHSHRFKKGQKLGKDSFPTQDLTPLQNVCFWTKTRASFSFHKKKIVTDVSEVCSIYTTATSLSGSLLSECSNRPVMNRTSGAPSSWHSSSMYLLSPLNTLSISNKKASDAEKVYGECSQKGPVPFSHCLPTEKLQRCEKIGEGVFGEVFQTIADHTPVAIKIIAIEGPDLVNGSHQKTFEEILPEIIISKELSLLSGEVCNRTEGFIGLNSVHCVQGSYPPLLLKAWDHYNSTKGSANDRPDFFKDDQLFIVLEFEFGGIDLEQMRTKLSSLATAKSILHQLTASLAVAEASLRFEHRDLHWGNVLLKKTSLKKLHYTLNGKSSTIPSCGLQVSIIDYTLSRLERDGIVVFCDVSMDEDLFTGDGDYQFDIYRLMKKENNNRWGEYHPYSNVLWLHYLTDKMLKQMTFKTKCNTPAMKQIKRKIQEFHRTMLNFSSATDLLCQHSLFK
As to the kind of experiment: Inhibition of HASPIN (unknown origin) assessed as residual activity at 1000 nM by KINOMEscan analysis relative to control.

Assay [3] has as its target T2, Myosin-IIIb (Homo sapiens) (UniProt Q8WXR4).
T2 sequence (whole entry): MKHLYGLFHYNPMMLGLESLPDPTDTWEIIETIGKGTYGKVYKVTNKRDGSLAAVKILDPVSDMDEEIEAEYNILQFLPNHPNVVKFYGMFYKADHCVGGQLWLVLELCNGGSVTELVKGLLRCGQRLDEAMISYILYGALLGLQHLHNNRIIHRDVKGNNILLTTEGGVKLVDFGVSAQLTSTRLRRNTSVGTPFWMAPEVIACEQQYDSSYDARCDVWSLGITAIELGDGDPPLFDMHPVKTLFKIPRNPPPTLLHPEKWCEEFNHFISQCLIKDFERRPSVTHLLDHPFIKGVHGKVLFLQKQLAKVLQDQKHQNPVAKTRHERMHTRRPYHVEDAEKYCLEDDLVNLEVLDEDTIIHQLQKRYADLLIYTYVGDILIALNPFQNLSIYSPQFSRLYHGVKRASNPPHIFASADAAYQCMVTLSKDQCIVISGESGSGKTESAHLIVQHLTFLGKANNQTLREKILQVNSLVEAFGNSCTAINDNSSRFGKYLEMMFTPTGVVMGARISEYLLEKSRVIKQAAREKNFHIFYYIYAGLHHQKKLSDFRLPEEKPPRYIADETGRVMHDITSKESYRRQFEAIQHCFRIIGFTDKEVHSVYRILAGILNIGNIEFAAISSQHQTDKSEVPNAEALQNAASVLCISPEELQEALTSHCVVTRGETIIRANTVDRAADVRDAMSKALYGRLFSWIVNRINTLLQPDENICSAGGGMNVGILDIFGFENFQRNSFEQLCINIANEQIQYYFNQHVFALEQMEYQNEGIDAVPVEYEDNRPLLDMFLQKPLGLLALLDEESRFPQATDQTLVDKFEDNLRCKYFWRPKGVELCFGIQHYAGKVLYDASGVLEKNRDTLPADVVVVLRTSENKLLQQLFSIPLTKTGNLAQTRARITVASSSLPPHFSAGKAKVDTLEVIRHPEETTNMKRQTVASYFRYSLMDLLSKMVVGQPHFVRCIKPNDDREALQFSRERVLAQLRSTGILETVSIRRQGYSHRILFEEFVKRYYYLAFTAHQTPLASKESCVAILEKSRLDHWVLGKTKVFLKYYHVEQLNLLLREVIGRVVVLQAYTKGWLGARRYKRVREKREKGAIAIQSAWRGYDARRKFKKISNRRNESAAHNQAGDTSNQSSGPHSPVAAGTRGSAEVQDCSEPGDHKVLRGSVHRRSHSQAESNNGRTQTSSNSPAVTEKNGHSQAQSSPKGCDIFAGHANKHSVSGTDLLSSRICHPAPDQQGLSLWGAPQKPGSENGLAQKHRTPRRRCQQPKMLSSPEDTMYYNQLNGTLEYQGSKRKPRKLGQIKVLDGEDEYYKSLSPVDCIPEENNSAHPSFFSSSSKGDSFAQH
As to the kind of experiment: Inhibition of MYO3B (unknown origin) assessed as residual activity at 1000 nM by KINOMEscan analysis relative to control.

The target of assay [4] is T3, Serine/threonine-protein kinase Nek2 (Homo sapiens) (UniProt P51955).
T3 sequence (whole entry): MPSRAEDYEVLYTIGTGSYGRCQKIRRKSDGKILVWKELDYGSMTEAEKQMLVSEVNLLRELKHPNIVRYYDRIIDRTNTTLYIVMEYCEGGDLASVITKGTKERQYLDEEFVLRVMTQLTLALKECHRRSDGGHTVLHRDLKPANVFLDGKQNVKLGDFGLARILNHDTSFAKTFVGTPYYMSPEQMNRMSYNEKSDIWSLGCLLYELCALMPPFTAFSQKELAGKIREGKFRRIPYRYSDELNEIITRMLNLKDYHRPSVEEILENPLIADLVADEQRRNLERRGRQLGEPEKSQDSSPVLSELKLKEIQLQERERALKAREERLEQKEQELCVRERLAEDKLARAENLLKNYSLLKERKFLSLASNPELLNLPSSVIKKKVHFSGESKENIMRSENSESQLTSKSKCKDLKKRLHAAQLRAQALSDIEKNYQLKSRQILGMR
As to the kind of experiment: Inhibition of NEK2 (unknown origin) assessed as residual activity at 1000 nM by KINOMEscan analysis relative to control.

Structures are written as SMILES.

Consider two compounds from ChEMBL document CHEMBL5678818, “Discovery of potent SOS1 inhibitors that block RAS activation via disruption of the RAS-SOS1 interaction” (Proc Natl Acad Sci U S A, 2019).

Sequence of Tyrosine-protein kinase ABL1 (Homo sapiens), P00519 [F317I] (P00519 whole entry F317I): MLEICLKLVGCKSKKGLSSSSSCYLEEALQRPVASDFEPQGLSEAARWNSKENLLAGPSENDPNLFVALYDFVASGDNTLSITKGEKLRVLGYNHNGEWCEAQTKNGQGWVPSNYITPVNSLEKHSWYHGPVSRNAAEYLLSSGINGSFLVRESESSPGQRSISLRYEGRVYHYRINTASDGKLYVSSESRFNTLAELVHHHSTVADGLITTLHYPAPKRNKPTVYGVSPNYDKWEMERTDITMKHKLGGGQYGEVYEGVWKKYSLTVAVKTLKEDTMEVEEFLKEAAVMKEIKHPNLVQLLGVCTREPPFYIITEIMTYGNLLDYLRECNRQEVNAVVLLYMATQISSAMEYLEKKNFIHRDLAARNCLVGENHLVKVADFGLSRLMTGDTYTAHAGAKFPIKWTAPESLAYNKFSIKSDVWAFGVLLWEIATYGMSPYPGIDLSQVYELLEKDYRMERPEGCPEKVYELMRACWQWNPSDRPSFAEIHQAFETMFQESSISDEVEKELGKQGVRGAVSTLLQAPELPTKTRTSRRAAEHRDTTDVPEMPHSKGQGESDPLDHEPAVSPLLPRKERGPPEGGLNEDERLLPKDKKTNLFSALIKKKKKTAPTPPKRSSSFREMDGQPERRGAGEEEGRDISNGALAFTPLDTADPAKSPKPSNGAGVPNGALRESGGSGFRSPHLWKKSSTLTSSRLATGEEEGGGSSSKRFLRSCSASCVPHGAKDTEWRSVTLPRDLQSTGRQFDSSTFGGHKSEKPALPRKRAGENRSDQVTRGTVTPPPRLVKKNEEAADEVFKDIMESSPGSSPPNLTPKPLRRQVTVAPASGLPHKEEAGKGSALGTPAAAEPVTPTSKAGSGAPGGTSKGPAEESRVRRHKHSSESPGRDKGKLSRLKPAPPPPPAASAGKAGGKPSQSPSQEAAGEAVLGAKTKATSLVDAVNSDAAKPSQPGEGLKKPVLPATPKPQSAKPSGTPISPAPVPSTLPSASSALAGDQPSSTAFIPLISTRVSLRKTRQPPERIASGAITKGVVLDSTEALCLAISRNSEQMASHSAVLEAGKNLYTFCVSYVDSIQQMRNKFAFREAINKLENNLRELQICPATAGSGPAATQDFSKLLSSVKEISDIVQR

In the case of `COc1cc2ncnc(N[C@H](C)c3cccc4ccccc34)c2cc1OC`, the Activity in assay [1] came to 86%; in assay [2], 99%; in assay [3], 88%; in assay [4], 98%.
In the case of `COc1cc2nc(C)nc(N[C@H](C)c3cccc(-c4cn[nH]c4)c3)c2cc1OC`, the Activity in assay [1] amounted to 84%; in assay [2], 81%; in assay [3] it was 89%; in assay [4], 89%.
